Assay results reported in patent EP0118036A1, “Biologically active ketone derivative, preparation and use” (THE WELLCOME FOUNDATION LIMITED, priority 1983, dated 1984).
Counter-ions that a name gives are not always drawn.

How the values were obtained:
[1] = free base; cited from earlier work
[2] = tested on: tetrabenazine induced sedation; experiment: Antagonism of tetrabenazine induced sedation (modified Vernier method); format: in vivo, Mice; details: for Percent Antagonism of Tetrabenazine Induced Sedation: CD1 male mice, 35 mg/kg tetrabenazine hydrochloride ip
Protocol: Antagonism of tetrabenazine induced sedation was measured using a modification of the method of Vernier, et al., First Hahnemann Symposium on Psychosomatic Medicine, ed. Nodim and Moyer, pub. Lea and Febiger, Philadelphia, 1962.
Mice, three groups of 12 CD1 males each, were injected intraperitoneally (ip) with a solution of 2-tert-butylamino-3'-chlorogropiophenone hydrochloride (Cpd A) or 2-tert-butylamino-3'-chloropropiophenone maleate (Cpd B) or with saline. Thirty minutes later each of the mice was injected ip with a solution containing 35 mg/kg tetrabenazine hydrochloride. Thirty minutes after the injection of tetrabenazine each mouse was examined for its level of exploratory behavior which was scored on a modification of the arbitrary scale defined by Vernier, et al. The dose of tetrabenazine used was sufficient to cause 90 to 100 percent of the mice to remain motionless even when placed in a new environment. In the test results reported 100 percent would represent total reversal of tetrabenazine effects.
The doses of Cpd B are equivalent to the corresponding doses of Cpd A on a molar basis.

[3] = Stability of salts with conventional pharmaceutical carriers or excipients; format: physicochemical; details: tableting excipients, particularly magnesium stearate and stearic acid; result in words
Excerpt: It will be appreciated that, in order for the salts to be used in medical therapy, it is necessary to formulate them into pharmaceutical compositions suitable for administration to the patient. The formulation of such compositions entails the admixture or contacting of the salts with various pharmaceutical carriers or excipients. Examples of solid pharmaceutical compositions which are mentioned in British Specification 1,340,032 are tablets, cachets, capsules and suppositories. Of these various types of composition, tablets and capsules are particularly preferred forms as it is generally desired to administer the active compound by the oral route. […] The formulation of the salts of the free base in capsules also presents problems because gelatin, which is commonly used to make the capsule shell, is hydrophilic and therefore creates a humid environment within the capsule, which has a deleterious effect on the 2-tert-butylamino-3'chloropropiophenone salt present in the capsule. It will therefore be appreciated that considerable difficulty arose in finding a salt of 2-tert-butylamino-3'-chloropropiophenone which has sufficient stability when formulated in pharmaceutical compositions.
A further advantage of the maleate salt is that it is much less corrosive than, for example, the hydrochloride salt which tends to corrode apparatus used in its preparation and formulation. […]

[4] = Storage stability of tablets (Examples 3, 4, 10A, 10B); format: physicochemical; details: summary in words of Table II
Protocol: In order to compare the storage stability of the tablets of Examples 3 and 4 with similar tablets containing the hydrochloride salt of 2-tert-butylamino-3'-chloropropiophenone, tablets having the following compositions were prepared in an analogous manner to that described in Examples 3 and 4:-
The four sets of tablets (3, 4, 10A and 10B) were tested for stability. Testing was carried out on tablets: • (a) stored at 50°C in closed bottles; and • (b) stored at 37°C in open bottles under a relative humidity of 75%.
The results are summarised in the following Table II in which the data are assay values expressed as percentage of labeled strength of the active salt, and "mo." indicates month: […]

Charles River CD1 mice = experiment: 14-day oral (gavage) toxicity in mice; format: in vivo; details: 260 mg/kg per day for 14 days, gavage in 0.5 percent carboxymethylcellulose, four males and four females
Protocol: 2-Tert-butylamino-3'-chloropropiophenone maleate was administered by gavage in 0.5 percent carboxymethylcellulose to Charles River CD1 mice (four males and four females) at a dose of 260 mg/kg per day for 14 days.

[5] = Comparative bulk storage stability of salts of 2-tert-butylamino-3'-chloropropiophenone; format: physicochemical; details: bulk salt, result in words
Excerpt: The propiophenone moiety breaks down into hydroxyketones, a diketone and meta-chlorobenzoic acid. It is of course an important desideratum for : a pharmaceutical product that it should have a reasonably good bulk stability in order to avoid or reduce wastage resulting from decomposition of the active moiety during the period between its synthesis and its use in formulating the final dosage form.
Small amounts of various salts of 2-tert-butylamino-3'-chloropropiophenone were each placed in a clean borosilicate glass vial which was sealed with a Teflon-faced rubber closure. The samples were then placed in an oven maintained at 70°C (except for the formate which was stored at 75°C) and visual comparisons were made over a period of 1-3 days. The observations are recorded in the following Table I: […]

For `CC(NC(C)(C)C)C(=O)c1cccc(F)c1` (stereo not drawn) [3'-fluoro analogue], the pKa [1] is listed as 8.5-9.

In the case of `CC(NC(C)(C)C)C(=O)c1cccc(Cl)c1.O=C(O)/C=C\C(=O)O` (stereo not drawn) [Cpd B, 2-tert-butylamino-3'-chloropropiophenone maleate], the “Percent Antagonism of Tetrabenazine Induced Sedation” value (“Percent Antagonism” for short) ([2]; dose 16.1 mg/kg (ip)) is reported as 27.5%, the “Percent Antagonism” value ([2]; dose 32.2 mg/kg (ip)) is reported as 62.5% and the “Percent Antagonism” value ([2]; dose 64.4 mg/kg (ip)) is reported as 60%. For the same compound, the “antidepressant activity in the tetrabenazine-induced sedation test” value ([2]; rodents, result in words) was “good antidepressant activity”, the “stability in association with conventional pharmaceutical carriers and excipients” value [3] was “advantageous stability characteristics” and the “stability in the formulated tablets” value [4] was “relatively stable”. For the same compound, the survival (Charles River CD1 mice) was “All of the mice survived”.

In the case of `CC(NC(C)(C)C)C(=O)c1cccc(Cl)c1` (stereo not drawn) [napthalenesulphonate monohydrate], the stability upon storage [5] is reported as “unstable upon storage”.

For `CC(NC(C)(C)C)C(=O)c1cccc(Cl)c1` (stereo not drawn) [Cpd A, 2-tert-butylamino-3'-chlorogropiophenone hydrochloride], the “Percent Antagonism” value ([2]; dose 12.5 mg/kg (ip)) was 17.5%, the “Percent Antagonism” value ([2]; dose 25 mg/kg (ip)) was 50% and the “Percent Antagonism” value ([2]; dose 50 mg/kg (ip)) was 62.5%. For the same compound, the “stability in association with conventional pharmaceutical carriers and excipients” value [3] was “limited stability” and the “stability in the formulated tablets” value [4] was “limited stability”.

For `CC(NC(C)(C)C)C(=O)c1cccc(Cl)c1` (stereo not drawn) [2-tert-butylamino-3'-chloropropiophenone], the pKa [1] is listed as 8.5-9.
